Measured values taken from patent US20100041657A1, “HALOALKYLSULFONE SUBSTITUTED COMPOUNDS USEFUL FOR TREATING OBESITY AND DIABETES” (NOVO NORDICK A/S, priority 2005, published 2010).
Values joined by “and” are separate entries in the source; they are usually repeats but may differ in a detail not shown here. Equal entries are not always repeated.

**Q.** For CC(C)(C)c1cc2c(c(C(=O)Nc3ccc(S(=O)(=O)C(F)(F)F)cc3Cl)c1O)CCCC2 [Example 50, 3-tert-Butyl-2-hydroxy-5,6,7,8-tetrahydro-naphthalene-1-carboxylic acid (2-chloro-4-trifluoromethanesulfonyl-phenyl)-amide], which melting point is on record?
**A.** 151 °C

**Q.** With CCc1c(C(C)(C)C)cc(C(C)(C)C)c(O)c1C(=O)Nc1ccc(S(=O)(=O)C(F)(F)F)cc1Cl [Example 47, 3,5-Di-tert-butyl-N-(2-chloro-4-trifluoromethanesulfonyl-phenyl)-2-ethyl-6-hydroxybenzamide] as the compound, how does the melting point read?
**A.** 157 to 158 °C

**Q.** For O=C(Nc1ccc(S(=O)(=O)C(F)(F)F)cc1Cl)c1c(O)c(C23CC4CC(CC(C4)C2)C3)cc2c1CCC2 [Example 30, 6-Adamantan-1-yl-5-hydroxy-indan-4-carboxylic acid (2-chloro-4-trifluoromethanesulfonyl-phenyl)-amide], which melting point is on record?
**A.** 218 to 219 °C

**Q.** With Cc1cc(C(=O)Nc2ccc(S(=O)(=O)C(F)(F)F)cc2Cl)c(O)c(C(C)(C)C)c1 [Example 26, 3-tert-Butyl-N-(2-chloro-4-trifluoromethanesulfonyl-phenyl)-2-hydroxy-5-methylbenzamide] as the compound, how does the melting point read?
**A.** 209 to 212 °C

**Q.** With O=C(Nc1cccc(SC(F)(F)F)c1)c1ccc2ccccc2c1O [Example 17, 1-Hydroxy-naphthalene-2-carboxylic acid (3-trifluoromethylsulfanyl-phenyl)-amide] as the compound, how does the melting point read?
**A.** 154 °C

**Q.** Which melting point does the source give for COc1cc(C(C)(C)C)c(O)c(C(=O)Nc2ccc(S(=O)(=O)C(F)(F)F)cc2Cl)c1O [Example 97, 3-tert-Butyl-N-(2-chloro-4-trifluoromethanesulfonyl-phenyl)-2,6-dihydroxy-5-methoxy-benzamide] here?
**A.** 170 to 171 °C

**Q.** For COc1c(O)cc(C(C)(C)C)c(O)c1C(=O)Nc1ccc(S(=O)(=O)C(F)(F)F)cc1Cl [Example 96, 3-tert-Butyl-N-(2-chloro-4-trifluoromethanesulfonyl-phenyl)-2,5-dihydroxy-6-methoxy-benzamide], which melting point is on record?
**A.** 171 to 175 °C

**Q.** For O=C(Nc1ccc(SC(F)(F)F)cc1)c1ccc2c(c1O)CCCC2 [Example 21, 1-Hydroxy-5,6,7,8-tetrahydro-naphthalene-2-carboxylic acid (4-trifluoromethylsulfanyl-phenyl)-amide], which melting point is on record?
**A.** 167 °C

**Q.** With O=C(Nc1ccc(S(=O)(=O)C(F)(F)F)cc1Cl)c1cc(Sc2ccc(F)cc2)c2ccccc2c1O [Example 31, 4-(4-Fluoro-phenylsulfanyl)-1-hydroxy-naphthalene-2-carboxylic acid (2-chloro-4-trifluoromethanesulfonyl-phenyl)-amide] as the compound, how does the melting point read?
**A.** 195 to 198 °C

**Q.** Which melting point does the source give for O=C(Nc1ccc(S(=O)(=O)C(F)(F)F)cc1Cl)c1c(O)c(C23CC4CC(CC(C4)C2)C3)cc2c1CCCC2 [Example 29] here?
**A.** 205 to 206 °C

**Q.** With O=C(Nc1ccc(S(=O)(=O)C(F)(F)F)cc1Cl)c1cc([S+]([O-])c2ccc(F)cc2)c2ccccc2c1O (stereo not shown) [Example 33, 4-(4-Fluoro-benzenesulfinyl)-1-hydroxy-naphthalene-2-carboxylic acid (2-chloro-4-trifluoromethanesulfonyl-phenyl)-amide] as the compound, how does the melting point read?
**A.** 198 to 199.5 °C

**Q.** With COc1cc(C(C)(C)C)c(O)c(C(=O)Nc2ccc(S(=O)(=O)C(F)(F)F)cc2Cl)c1C [Example 93, 3-tert-Butyl-N-(2-chloro-4-trifluoromethanesulfonyl-phenyl)-2-hydroxy-5-methoxy-6-methyl-benzamide] as the compound, how does the melting point read?
**A.** 121 to 122 °C

**Q.** For O=C(Nc1ccc(SC(F)(F)F)cc1)c1cc(Cl)c2ccccc2c1O [Example 23, 4-Chloro-1-hydroxy-naphthalene-2-carboxylic acid (4-trifluoromethylsulfanyl-phenyl)amide], which melting point is on record?
**A.** 172 to 175 °C

**Q.** Which melting point does the source give for CC(C)(C)c1cc2c(c(C(=O)Nc3ccc(S(=O)(=O)C(F)(F)F)cc3Cl)c1O)CCO2 [Example 94, 6-tert-Butyl-5-hydroxy-2,3-dihydro-benzofuran-4-carboxylic acid (2-chloro-4-trifluoromethanesulfonyl-phenyl)-amide] here?
**A.** 201 to 202 °C

**Q.** Which melting point does the source give for CC1(c2cc(-c3ccc(F)cc3F)cc(C(=O)Nc3ccc(S(=O)(=O)C(F)(F)F)cc3Cl)c2O)CCCCC1 [Example 35, 2′,4′-Difluoro-4-hydroxy-5-(1-methyl-cyclohexyl)-biphenyl-3-carboxylic acid (2-chloro-4-trifluoromethanesulfonyl-phenyl)-amide] here?
**A.** 114 to 115 °C

**Q.** With O=C(Nc1ccc(S(=O)(=O)C(F)(F)F)cc1Cl)c1cc(-c2ccc(F)cc2F)cc(C23CC4CC(CC(C4)C2)C3)c1O [Example 32, 5-Adamantan-1-yl-2′,4′-difluoro-4-hydroxy-biphenyl-3-carboxylic acid (2-chloro-4-trifluoromethanesulfonyl-phenyl)-amide] as the compound, how does the melting point read?
**A.** 177 to 178 °C

**Q.** For Cc1c([S+](C)[O-])cc(C(C)(C)C)c(O)c1C(=O)Nc1ccc(S(=O)(=O)C(F)(F)F)cc1Cl (stereo not shown) [Example 51, 3-tert-Butyl-N-(2-chloro-4-trifluoromethanesulfonyl-phenyl)-2-hydroxy-5-methanesulfinyl-6-methyl-benzamide], which melting point is on record?
**A.** 218 to 219 °C (dec.)

**Q.** For O=C(Nc1ccc(SC(F)(F)F)c(Cl)c1)c1cc(Cl)c2ccccc2c1O [Example 27, 4-Chloro-1-hydroxy-naphthalene-2-carboxylic acid (3-chloro-4-trifluoromethylsulfanyl-phenyl)-amide], which melting point is on record?
**A.** 148 to 149 °C

**Q.** For O=C(Nc1ccc(SC(F)(F)F)cc1)c1cc(S(=O)(=O)c2ccccc2)c2ccccc2c1O [Example 22, 4-Benzenesulfonyl-1-hydroxy-naphthalene-2-carboxylic acid (4-trifluoromethylsulfanyl-phenyl)-amide], which melting point is on record?
**A.** 271 to 272 °C

**Q.** With CC(C)(C)c1cc(C(C)(C)C)c(O)c(C(=O)Nc2ccc(S(=O)(=O)C(F)(F)F)cc2Cl)c1O [Example 100, 3,5-Di-tert-butyl-N-(2-chloro-4-trifluoromethanesulfonyl-phenyl)-2,6-dihydroxy-benzamide] as the compound, how does the melting point read?
**A.** 149 to 150 °C

**Q.** With O=C(Nc1cccc(S(=O)(=O)C(F)(F)F)c1)c1cc2ccccc2cc1O [Example 19, 3-Hydroxy-naphthalene-2-carboxylic acid (3-trifluoromethanesulfonyl-phenyl)-amide] as the compound, how does the melting point read?
**A.** 212 to 213 °C

**Q.** For O=C(Nc1cccc(S(=O)(=O)C(F)(F)F)c1)c1c(O)ccc2ccccc12 [Example 18, 2-Hydroxy-naphthalene-1-carboxylic acid (3-trifluoromethanesulfonyl-phenyl)-amide], which melting point is on record?
**A.** 179 to 180 °C

**Q.** Which melting point does the source give for Cc1cc(C(=O)Nc2ccc(S(=O)(=O)C(F)(F)F)cc2Cl)c(O)c(C23CC4CC(CC(C4)C2)C3)c1 [Example 24, 3-Adamantan-1-yl-N-(2-chloro-4-trifluoromethanesulfonyl-phenyl)-2-hydroxy-5-methyl-benzamide] here?
**A.** 203 to 204 °C

**Q.** With CCc1ccc(C(C)(C)C)c(O)c1C(=O)Nc1ccc(S(=O)(=O)C(F)(F)F)cc1Cl [Example 46, 3-tert-Butyl-N-(2-chloro-4-trifluoromethanesulfonyl-phenyl)-6-ethyl-2-hydroxybenzamide] as the compound, how does the melting point read?
**A.** 126 to 127 °C

**Q.** For CC(C)(C)c1cc2c(c(C(=O)Nc3ccc(S(=O)(=O)C(F)(F)F)cc3Cl)c1O)CCC2 [Example 48, 6-tert-Butyl-5-hydroxy-indan-4-carboxylic acid (2-chloro-4-trifluoromethanesulfonylphenyl)-amide], which melting point is on record?
**A.** 172 to 173 °C

**Q.** Which melting point does the source give for CSc1c(C)cc(O)c(C(=O)Nc2ccc(S(=O)(=O)C(F)(F)F)cc2Cl)c1C [Example 163, N-(2-Chloro-4-trifluoromethanesulfonyl-phenyl)-6-hydroxy-2,4-dimethyl-3-methylsulfanyl-benzamide] here?
**A.** 205 to 206 °C and 201 to 202 °C

**Q.** With O=C(Nc1cccc(S(=O)(=O)C(F)(F)F)c1)c1ccc2ccccc2c1O [Example 16, 1-Hydroxy-naphthalene-2-carboxylic acid (3-trifluoromethanesulfonyl-phenyl)-amide] as the compound, how does the melting point read?
**A.** 194 to 195 °C

**Q.** With COc1ccc(C(C)(C)C)c(O)c1C(=O)Nc1ccc(S(=O)(=O)C(F)(F)F)cc1Cl [Example 92, 3-tert-Butyl-N-(2-chloro-4-trifluoromethanesulfonyl-phenyl)-2-hydroxy-6-methoxy-benzamide] as the compound, how does the melting point read?
**A.** 198 to 199 °C

**Q.** Which melting point does the source give for Cc1c(O)cc(C(C)(C)C)c(O)c1C(=O)Nc1ccc(S(=O)(=O)C(F)(F)F)cc1Cl [Example 95, 3-tert-Butyl-N-(2-chloro-4-trifluoromethanesulfonyl-phenyl)-2,5-dihydroxy-6-methylbenzamide] here?
**A.** 163 to 166 °C

**Q.** For COc1cc(C(=O)Nc2ccc(S(=O)(=O)C(F)(F)F)cc2Cl)c(O)c(C(C)(C)C)c1 [Example 53, 3-tert-Butyl-N-(2-chloro-4-trifluoromethanesulfonyl-phenyl)-2-hydroxy-5-methoxy-benzamide], which melting point is on record?
**A.** 126 to 127 °C

**Q.** Which melting point does the source give for CC(C)c1ccc(C(C)(C)C)c(O)c1C(=O)Nc1ccc(S(=O)(=O)C(F)(F)F)cc1Cl [Example 54, 3-tert-Butyl-N-(2-chloro-4-trifluoromethanesulfonyl-phenyl)-2-hydroxy-6-isopropyl-benzamide] here?
**A.** 116 to 116.5 °C
